# Patent US20230085307A1, “PYRIDAZINONE COMPOUND AND HERBICIDE” (NISSAN CHEMICAL CORPORATION, priority 2019, published 2023)
# Legend:
# Japanese bulrush [1] = experiment: Test Example 2: herbicidal activity, application during weed generation under submerged conditions (Table 17, symbol B); assay type: in vivo, Japanese bulrush (Schoenoplectus juncoides); conditions: AAH 320 g/ha; application during weed generation, submerged conditions
# Procedure, shortened: (§1)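 Steps: fill Wagner pots with alluvial soil; add water to give 4 cm depth; sow the species mixed; grow under glass at 25–30° C.; at 1–2 leaves apply water-diluted emulsion formulation to the water surface at a fixed herbicide amount; score after 3 weeks.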
# late watergrass [2] = experiment: Test Example 1: herbicidal activity, application before weed generation under submerged conditions (Table 16, symbol A); assay type: in vivo, late watergrass (Echinochloa oryzicola); conditions: 320 g/ha applied herbicide
# Procedure, shortened: (§2)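 Alluvial soil was flooded to 4 cm depth, weed seeds were sown mixed and 2.5-leaf rice seedlings were transplanted. On sowing day, the compound's emulsion, diluted in water to a set dose, was applied to the water surface. Plants grew at 25–30 °C and were scored 0–5 after three weeks.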
# oval-leafed pondweed [3] = experiment: Test Example 1: herbicidal activity, application before weed generation under submerged conditions (Table 16, symbol C); assay type: in vivo, oval-leafed pondweed (Monochoria vaginalis); conditions: 320 g/ha applied herbicide
# Procedure, shortened: as §2
# Japanese bulrush [4] = experiment: Test Example 1: herbicidal activity, application before weed generation under submerged conditions (Table 16, symbol B); assay type: in vivo, Japanese bulrush (Schoenoplectus juncoides); conditions: 320 g/ha applied herbicide
# Procedure, shortened: as §2
# barnyard grass [5] = experiment: Test Example 3: herbicidal effect by foliage application, Wagner pot (Table 18, symbol H); assay type: in vivo, barnyard grass (Echinochloa crus-galli); conditions: 320 g/ha
# Procedure, shortened: (§3)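 Plants were sown in alluvial soil held under 0.1–0.5 cm standing water and grown 14 days in a greenhouse at 25–30 °C. An emulsifiable formulation, water-diluted to the set dose, was then sprayed onto the foliage, and effects were scored three weeks later using previously defined criteria.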
# Chinese sprangletop = experiment: Test Example 3: herbicidal effect by foliage application, Wagner pot (Table 18, symbol D); assay type: in vivo, chinese sprangletop (Leptochloa chinensis); conditions: 320 g/ha
# Procedure, shortened: as §3
# late watergrass [6] = experiment: Test Example 2: herbicidal activity, application during weed generation under submerged conditions (Table 17, symbol A); assay type: in vivo, late watergrass (Echinochloa oryzicola); conditions: AAH 320 g/ha; application during weed generation, submerged conditions
# Procedure, shortened: as §1
# rice flat sedge = experiment: Test Example 3: herbicidal effect by foliage application, Wagner pot (Table 18, symbol E); assay type: in vivo, rice flat sedge (Cyperus iria); conditions: 320 g/ha
# Procedure, shortened: as §3
# oval-leafed pondweed [7] = experiment: Test Example 2: herbicidal activity, application during weed generation under submerged conditions (Table 17, symbol C); assay type: in vivo, oval-leafed pondweed (Monochoria vaginalis); conditions: AAH 320 g/ha; application during weed generation, submerged conditions
# Procedure, shortened: as §1
# Italian ryegrass [8] = experiment: Test Example 5: herbicidal effect by foliage application, plastic box (Table 20, symbol K); assay type: in vivo, Italian ryegrass (Lolium multiflorum); conditions: amount of applied herbicide 320 g/ha; foliage application after 14-day growth; evaluated three weeks after application
# Procedure, shortened: (§4)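 Plants were sown into sterilized diluvial soil under about 1.5 cm cover and kept in a greenhouse at 25° C. to 30° C. Fourteen days on, foliage received an even spray of the diluted emulsion. Herbicidal or crop effect was judged three weeks afterwards.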
# southern crabgrass [9] = experiment: Test Example 4: herbicidal effect by soil treatment (Table 19, symbol F); assay type: in vivo, southern crabgrass (Digitaria ciliaris); conditions: amount of applied herbicide 320 g/ha
# Procedure, shortened: (§5)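 Pre-emergence style soil spray: seeds under ~1.5 cm sterilized diluvial soil received a uniform coat of emulsion diluted to the predetermined herbicide amount. Greenhouse 25–30° C; readout at week three on previously defined criteria.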
# wild oat [10] = experiment: Test Example 4: herbicidal effect by soil treatment (Table 19, symbol I); assay type: in vivo, wild oat (Avena fatua); conditions: amount of applied herbicide 320 g/ha
# Procedure, shortened: as §5
# southern crabgrass [11] = experiment: Test Example 5: herbicidal effect by foliage application, plastic box (Table 20, symbol F); assay type: in vivo, southern crabgrass (Digitaria ciliaris); conditions: amount of applied herbicide 320 g/ha; foliage application after 14-day growth; evaluated three weeks after application
# Procedure, shortened: as §4
# persian speedwell [12] = experiment: Test Example 5: herbicidal effect by foliage application, plastic box (Table 20, symbol R); assay type: in vivo, Persian speedwell (Veronica persica); conditions: amount of applied herbicide 320 g/ha; foliage application after 14-day growth; evaluated three weeks after application
# Procedure, shortened: as §4
# persian speedwell [13] = experiment: Test Example 4: herbicidal effect by soil treatment (Table 19, symbol R); assay type: in vivo, Persian speedwell (Veronica persica); conditions: amount of applied herbicide 320 g/ha
# Procedure, shortened: as §5
# barnyard grass [14] = experiment: Test Example 5: herbicidal effect by foliage application, plastic box (Table 20, symbol H); assay type: in vivo, barnyard grass (Echinochloa crus-galli); conditions: amount of applied herbicide 320 g/ha; foliage application after 14-day growth; evaluated three weeks after application
# Procedure, shortened: as §4
# velvetleaf [15] = experiment: Test Example 4: herbicidal effect by soil treatment (Table 19, symbol M); assay type: in vivo, velvetleaf (Abutilon theophrasti); conditions: amount of applied herbicide 320 g/ha
# Procedure, shortened: as §5
# blackgrass [16] = experiment: Test Example 5: herbicidal effect by foliage application, plastic box (Table 20, symbol J); assay type: in vivo, blackgrass (Alopecurus myosuroides); conditions: amount of applied herbicide 320 g/ha; foliage application after 14-day growth; evaluated three weeks after application
# Procedure, shortened: as §4
# Italian ryegrass [17] = experiment: Test Example 4: herbicidal effect by soil treatment (Table 19, symbol K); assay type: in vivo, Italian ryegrass (Lolium multiflorum); conditions: amount of applied herbicide 320 g/ha
# Procedure, shortened: as §5
# blackgrass [18] = experiment: Test Example 4: herbicidal effect by soil treatment (Table 19, symbol J); assay type: in vivo, blackgrass (Alopecurus myosuroides); conditions: amount of applied herbicide 320 g/ha
# Procedure, shortened: as §5
# windgrass [19] = experiment: Test Example 4: herbicidal effect by soil treatment (Table 19, symbol L); assay type: in vivo, windgrass (Apera spica-venti); conditions: amount of applied herbicide 320 g/ha
# Procedure, shortened: as §5
# lambsquarters [20] = experiment: Test Example 4: herbicidal effect by soil treatment (Table 19, symbol O); assay type: in vivo, lambsquarters (Chenopodium album); conditions: amount of applied herbicide 320 g/ha
# Procedure, shortened: as §5
# lambsquarters [21] = experiment: Test Example 5: herbicidal effect by foliage application, plastic box (Table 20, symbol O); assay type: in vivo, lambsquarters (Chenopodium album); conditions: amount of applied herbicide 320 g/ha; foliage application after 14-day growth; evaluated three weeks after application
# Procedure, shortened: as §4
# chickweed [22] = experiment: Test Example 4: herbicidal effect by soil treatment (Table 19, symbol P); assay type: in vivo, common chickweed (Stellaria media); conditions: amount of applied herbicide 320 g/ha
# Procedure, shortened: as §5
# green foxtail [23] = experiment: Test Example 4: herbicidal effect by soil treatment (Table 19, symbol G); assay type: in vivo, green foxtail (Setaria viridis); conditions: amount of applied herbicide 320 g/ha
# Procedure, shortened: as §5
# chickweed [24] = experiment: Test Example 5: herbicidal effect by foliage application, plastic box (Table 20, symbol P); assay type: in vivo, common chickweed (Stellaria media); conditions: amount of applied herbicide 320 g/ha; foliage application after 14-day growth; evaluated three weeks after application
# Procedure, shortened: as §4
# redroot pigweed [25] = experiment: Test Example 5: herbicidal effect by foliage application, plastic box (Table 20, symbol N); assay type: in vivo, redroot pigweed (Amaranthus retroflexus); conditions: amount of applied herbicide 320 g/ha; foliage application after 14-day growth; evaluated three weeks after application
# Procedure, shortened: as §4
# windgrass [26] = experiment: Test Example 5: herbicidal effect by foliage application, plastic box (Table 20, symbol L); assay type: in vivo, windgrass (Apera spica-venti); conditions: amount of applied herbicide 320 g/ha; foliage application after 14-day growth; evaluated three weeks after application
# Procedure, shortened: as §4
# barnyard grass [27] = experiment: Test Example 4: herbicidal effect by soil treatment (Table 19, symbol H); assay type: in vivo, barnyard grass (Echinochloa crus-galli); conditions: amount of applied herbicide 320 g/ha
# Procedure, shortened: as §5
# green foxtail [28] = experiment: Test Example 5: herbicidal effect by foliage application, plastic box (Table 20, symbol G); assay type: in vivo, green foxtail (Setaria viridis); conditions: amount of applied herbicide 320 g/ha; foliage application after 14-day growth; evaluated three weeks after application
# Procedure, shortened: as §4
# redroot pigweed [29] = experiment: Test Example 4: herbicidal effect by soil treatment (Table 19, symbol N); assay type: in vivo, redroot pigweed (Amaranthus retroflexus); conditions: amount of applied herbicide 320 g/ha
# Procedure, shortened: as §5
# wild oat [30] = experiment: Test Example 5: herbicidal effect by foliage application, plastic box (Table 20, symbol I); assay type: in vivo, wild oat (Avena fatua); conditions: amount of applied herbicide 320 g/ha; foliage application after 14-day growth; evaluated three weeks after application
# Procedure, shortened: as §4
# velvetleaf [31] = experiment: Test Example 5: herbicidal effect by foliage application, plastic box (Table 20, symbol M); assay type: in vivo, velvetleaf (Abutilon theophrasti); conditions: amount of applied herbicide 320 g/ha; foliage application after 14-day growth; evaluated three weeks after application
# Procedure, shortened: as §4
smiles,measurement,setting,value
Cc1nn(C)c(=O)c(-c2c(-c3ccc(OCCOC(C)C)cc3)sc3ccccc23)c1O [1-226],"herbicidal effect rating, B: Japanese bulrush",Japanese bulrush [1],3 (Herbicidal rate of 40% or more and less than 70%)
same,Herbicidal effect on A: late watergrass (grade 0-5),late watergrass [2],5 (Herbicidal rate of 90% or more (almost completely withered))
same,Herbicidal effect on C: oval-leafed pondweed (grade 0-5),oval-leafed pondweed [3],4 (Herbicidal rate of 70% or more and less than 90%)
same,Herbicidal effect on B: Japanese bulrush (grade 0-5),Japanese bulrush [4],4 (Herbicidal rate of 70% or more and less than 90%)
same,"herbicidal effect on H (barnyard grass), rating 0-5",barnyard grass [5],5 (Herbicidal rate of 90% or more (almost completely withered))
same,"herbicidal effect on D (Chinese sprangletop), rating 0-5",Chinese sprangletop,5 (Herbicidal rate of 90% or more (almost completely withered))
same,"herbicidal effect rating, A: late watergrass",late watergrass [6],5 (Herbicidal rate of 90% or more (almost completely withered))
same,"herbicidal effect on E (rice flat sedge), rating 0-5",rice flat sedge,4 (Herbicidal rate of 70% or more and less than 90%)
same,"herbicidal effect rating, C: oval-leafed pondweed",oval-leafed pondweed [7],3 (Herbicidal rate of 40% or more and less than 70%)
Cc1nn(C)c(=O)c(-c2c(-c3ccccc3OC(F)F)sc3cc(F)c(F)cc23)c1O [5-021],"Herbicidal effect by foliage application, K: Italian ryegrass",Italian ryegrass [8],4 (Herbicidal rate of 70% or more and less than 90%)
same,"F: southern crabgrass, herbicidal effect grade",southern crabgrass [9],5 (Herbicidal rate of 90% or more (almost completely withered))
same,"I: wild oat, herbicidal effect grade",wild oat [10],0 (Herbicidal rate of 5% or less (almost no effect))
same,"Herbicidal effect by foliage application, F: southern crabgrass",southern crabgrass [11],5 (Herbicidal rate of 90% or more (almost completely withered))
same,"Herbicidal effect by foliage application, R: persian speedwell",persian speedwell [12],5 (Herbicidal rate of 90% or more (almost completely withered))
same,"R: persian speedwell, herbicidal effect grade",persian speedwell [13],5 (Herbicidal rate of 90% or more (almost completely withered))
same,"Herbicidal effect by foliage application, H: barnyard grass",barnyard grass [14],4 (Herbicidal rate of 70% or more and less than 90%)
same,"M: velvetleaf, herbicidal effect grade",velvetleaf [15],4 (Herbicidal rate of 70% or more and less than 90%)
same,"Herbicidal effect by foliage application, J: blackgrass",blackgrass [16],4 (Herbicidal rate of 70% or more and less than 90%)
same,"herbicidal effect rating, B: Japanese bulrush",Japanese bulrush [1],2 (Herbicidal rate of 20% or more and less than 40%)
same,"K: Italian ryegrass, herbicidal effect grade",Italian ryegrass [17],0 (Herbicidal rate of 5% or less (almost no effect))
same,herbicidal effect on barnyard grass (H),barnyard grass [5],4 (Herbicidal rate of 70% or more and less than 90%)
same,herbicidal effect on Chinese sprangletop (D),Chinese sprangletop,3 (Herbicidal rate of 40% or more and less than 70%)
same,"J: blackgrass, herbicidal effect grade",blackgrass [18],0 (Herbicidal rate of 5% or less (almost no effect))
same,"L: windgrass, herbicidal effect grade",windgrass [19],4 (Herbicidal rate of 70% or more and less than 90%)
same,"O: lambsquarters, herbicidal effect grade",lambsquarters [20],3 (Herbicidal rate of 40% or more and less than 70%)
same,"Herbicidal effect by foliage application, O: lambsquarters",lambsquarters [21],3 (Herbicidal rate of 40% or more and less than 70%)
same,"P: chickweed, herbicidal effect grade",chickweed [22],2 (Herbicidal rate of 20% or more and less than 40%)
same,"G: green foxtail, herbicidal effect grade",green foxtail [23],5 (Herbicidal rate of 90% or more (almost completely withered))
same,"Herbicidal effect by foliage application, P: chickweed",chickweed [24],5 (Herbicidal rate of 90% or more (almost completely withered))
same,"Herbicidal effect by foliage application, N: redroot pigweed",redroot pigweed [25],4 (Herbicidal rate of 70% or more and less than 90%)
same,"Herbicidal effect by foliage application, L: windgrass",windgrass [26],5 (Herbicidal rate of 90% or more (almost completely withered))
same,"H: barnyard grass, herbicidal effect grade",barnyard grass [27],4 (Herbicidal rate of 70% or more and less than 90%)
same,"Herbicidal effect by foliage application, G: green foxtail",green foxtail [28],5 (Herbicidal rate of 90% or more (almost completely withered))
same,"N: redroot pigweed, herbicidal effect grade",redroot pigweed [29],4 (Herbicidal rate of 70% or more and less than 90%)
same,"Herbicidal effect by foliage application, I: wild oat",wild oat [30],2 (Herbicidal rate of 20% or more and less than 40%)
same,"herbicidal effect rating, A: late watergrass",late watergrass [6],0 (Herbicidal rate of 5% or less (almost no effect))
same,"Herbicidal effect by foliage application, M: velvetleaf",velvetleaf [31],5 (Herbicidal rate of 90% or more (almost completely withered))
same,herbicidal effect on rice flat sedge (E),rice flat sedge,5 (Herbicidal rate of 90% or more (almost completely withered))
same,"herbicidal effect rating, C: oval-leafed pondweed",oval-leafed pondweed [7],0 (Herbicidal rate of 5% or less (almost no effect))
